Results as given in patent publication US9944656B2, “Benzothiazole macrocycles as inhibitors of human immunodeficiency virus replication” (priority 2014, dated 2018).

Tested on: recombinant NL-RLuc virus (HIV, NL4-3 derived) in MT-2 cells
Test: Inhibition of HIV replication (NL-RLuc virus in MT-2 cells, luciferase readout)
Format: cell-based
Conditions: 5 days of incubation, 10% FBS
Text: Inhibition of HIV Replication.
A recombinant NL-RLuc proviral clone was constructed in which a section of the nef gene from NL4-3 was replaced with the Renilla Luciferase gene. This virus is fully infectious and can undergo multiple cycles of replication in cell culture. In addition, the luciferous reporter provides a simple and easy method for quantitating the extent of virus growth and consequently, the antiviral activity of test compounds. The plasmid pNLRLuc contains the proviral NL-Rluc DNA cloned into pUC 18 at the PvuII site. The NL-RLuc virus was prepared by transfection of 293T cells with the plasmid pNLRLuc. Transfections were performed using the LipofectAMINE PLUS kit from Invitrogen (Carlsbad, Calif.) according to the manufacturer and the virus generated was titered in MT-2 cells. For susceptibility analyses, the titrated virus was used to infect MT-2 cells in the presence of compound, and after 5 days of incubation, cells were processed and quantitated for virus growth by the amount of expressed luciferase. […] Luciferase was quantitated using the Dual Luciferase kit from Promega (Madison, Wis.). Susceptibility of viruses to compounds was determined by incubation in the presence of serial dilutions of the compound. […]

Row | SMILES | EC50 [nM]
1 | Cc1ccc2c(c1)-c1cccc(c1)-c1nc3cc(C)c([C@H](OC(C)(C)C)C(=O)O)c(c3s1)-c1ccc3c(c1)C(CCCC[C@H](C)O2)CCO3 (single isomer, unassigned) [Example 2] | 350
2 | Cc1ccc2c(c1)-c1cccc(c1)-c1nc3cc(C)c([C@H](OC(C)(C)C)C(=O)O)c(c3s1)-c1ccc3c(c1)C(CCCC[C@H](C)O2)CCO3 (single isomer, unassigned) [Example 1] | 5620
